From PubChem BioAssay AID624485 (The Scripps Research Institute Molecular Screening Center, 2012)
Values joined by “and” are separate entries in the source; they are usually repeats but may differ in a detail not shown here. Identical values can stand only once. Active and inactive are the calls of the source.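 The calls were made as follows: active = over 50% inhibition of probe labelling of the prolyl oligopeptidase-like enzyme in cells; inactive = inhibition at or below 50%.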

Target: Prolyl endopeptidase-like (Mus musculus) (UniProt Q8C167)
Sequence (Q8C167 whole entry, looked up): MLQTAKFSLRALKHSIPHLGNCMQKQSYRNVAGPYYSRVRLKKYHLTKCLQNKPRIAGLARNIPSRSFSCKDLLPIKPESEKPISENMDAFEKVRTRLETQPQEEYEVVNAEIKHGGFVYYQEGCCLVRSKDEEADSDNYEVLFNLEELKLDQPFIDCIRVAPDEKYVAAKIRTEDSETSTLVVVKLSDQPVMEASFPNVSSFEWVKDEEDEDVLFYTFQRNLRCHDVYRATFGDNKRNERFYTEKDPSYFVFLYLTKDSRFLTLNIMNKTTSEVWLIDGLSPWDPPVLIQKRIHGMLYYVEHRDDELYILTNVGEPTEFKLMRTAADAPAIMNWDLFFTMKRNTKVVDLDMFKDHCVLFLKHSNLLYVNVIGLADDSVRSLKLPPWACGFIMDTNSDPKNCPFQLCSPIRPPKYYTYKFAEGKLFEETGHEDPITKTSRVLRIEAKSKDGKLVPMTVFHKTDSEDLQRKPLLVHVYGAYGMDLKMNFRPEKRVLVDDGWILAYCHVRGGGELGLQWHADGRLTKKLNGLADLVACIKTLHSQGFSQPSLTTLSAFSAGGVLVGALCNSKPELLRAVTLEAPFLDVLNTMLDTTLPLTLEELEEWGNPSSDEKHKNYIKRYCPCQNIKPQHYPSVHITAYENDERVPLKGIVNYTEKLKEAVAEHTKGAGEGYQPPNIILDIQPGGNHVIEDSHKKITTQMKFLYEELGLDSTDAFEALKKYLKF
Test: PREPL inhibition in intact cells, cell-based, click chemistry ABPP, gel, fluorescence (AID 624485)
Conditions: Neuro-2A transfected mPrepl, in situ gel CC-ABPP; at 50 µM; stronger effect = higher value

Structure (SMILES) | inhibition
CC(C)Cc1[nH]c(=O)c(C#N)c2c1CCC2 | 90%
CCOc1ccc(CCNC(=O)c2ccc3c(=O)[nH]c4c(C(=O)NC(C)C)sc(=S)n4c3c2)cc1 | -29% (inactive) and 0% (inactive)
O=C(Nc1ccc2c(c1)OCCO2)c1cccc2nc3ccccc3nc12 | -26% (inactive)
N#Cc1c2c(c(-c3ccccc3)[nH]c1=O)CCCC2 | 60%
